Measured values: article PMC3602154 (PLoS ONE, 2013)

Experiments:
[1] = biological target: A3B2 (Rattus norvegicus, UniProt P04757+P12390); experiment: PDSP radioligand binding, nicotinic receptor α3 ß2
From the text: (§1) [17] and http://pdsp.med.unc.edu/UNC-CH%20Protocol%20Book.pdf.

[2] = biological target: Sigma2 (Homo sapiens, UniProt Q5BJF2); experiment: PDSP radioligand binding, Sigma2; settings: for inhibition at 10 µM: quadruplicate, read-out: Sigma2 Primary Screen inhibition of binding
From the text: as §1

[3] = biological target: T1, M5 (Homo sapiens, UniProt P08912); experiment: PDSP radioligand binding, muscarinic receptor M5
T1 sequence (P08912 1-532): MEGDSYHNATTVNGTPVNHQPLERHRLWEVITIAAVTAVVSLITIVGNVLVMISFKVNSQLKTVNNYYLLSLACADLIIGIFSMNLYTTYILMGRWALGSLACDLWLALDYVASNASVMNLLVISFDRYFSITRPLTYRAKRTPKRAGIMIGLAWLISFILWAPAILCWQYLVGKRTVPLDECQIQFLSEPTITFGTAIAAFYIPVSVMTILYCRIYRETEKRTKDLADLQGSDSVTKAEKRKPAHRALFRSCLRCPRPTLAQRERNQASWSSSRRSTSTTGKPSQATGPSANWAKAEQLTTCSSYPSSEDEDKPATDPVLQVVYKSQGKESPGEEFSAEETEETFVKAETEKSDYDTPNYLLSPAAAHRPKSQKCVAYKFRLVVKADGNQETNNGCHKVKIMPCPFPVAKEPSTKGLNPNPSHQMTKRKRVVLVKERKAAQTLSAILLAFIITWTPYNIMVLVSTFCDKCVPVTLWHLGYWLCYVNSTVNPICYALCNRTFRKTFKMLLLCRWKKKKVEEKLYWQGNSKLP
From the text: as §1

[4] = biological target: H3 (Homo sapiens, UniProt Q9Y5N1); experiment: PDSP radioligand binding, histamine receptor H3
From the text: as §1

[5] = biological target: D5 (Homo sapiens, UniProt P21918); experiment: PDSP radioligand binding, dopamine receptor D5
From the text: as §1

[6] = biological target: SERT (serotonin transporter) (Homo sapiens, UniProt P31645); experiment: biochemical; type: binding; settings: for Ki: Table 2
From the text: as §1

SERT (serotonin transporter), sequence (P31645 whole entry, species assumed): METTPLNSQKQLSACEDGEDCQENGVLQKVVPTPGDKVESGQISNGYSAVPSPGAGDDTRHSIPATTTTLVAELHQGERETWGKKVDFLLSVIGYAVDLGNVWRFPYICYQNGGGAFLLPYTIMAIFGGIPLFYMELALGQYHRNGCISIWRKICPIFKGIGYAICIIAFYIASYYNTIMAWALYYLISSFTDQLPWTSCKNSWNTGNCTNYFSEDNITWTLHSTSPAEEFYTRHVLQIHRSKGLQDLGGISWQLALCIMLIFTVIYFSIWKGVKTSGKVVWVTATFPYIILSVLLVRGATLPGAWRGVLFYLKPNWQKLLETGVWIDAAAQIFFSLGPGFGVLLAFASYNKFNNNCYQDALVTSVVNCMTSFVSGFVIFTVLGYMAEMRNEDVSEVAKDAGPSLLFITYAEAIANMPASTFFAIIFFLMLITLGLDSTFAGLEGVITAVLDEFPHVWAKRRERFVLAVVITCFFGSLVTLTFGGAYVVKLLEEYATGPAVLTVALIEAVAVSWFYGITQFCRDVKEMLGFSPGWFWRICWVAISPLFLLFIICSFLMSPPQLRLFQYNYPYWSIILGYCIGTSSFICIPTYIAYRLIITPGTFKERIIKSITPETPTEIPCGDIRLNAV
D5, sequence (P21918 whole entry): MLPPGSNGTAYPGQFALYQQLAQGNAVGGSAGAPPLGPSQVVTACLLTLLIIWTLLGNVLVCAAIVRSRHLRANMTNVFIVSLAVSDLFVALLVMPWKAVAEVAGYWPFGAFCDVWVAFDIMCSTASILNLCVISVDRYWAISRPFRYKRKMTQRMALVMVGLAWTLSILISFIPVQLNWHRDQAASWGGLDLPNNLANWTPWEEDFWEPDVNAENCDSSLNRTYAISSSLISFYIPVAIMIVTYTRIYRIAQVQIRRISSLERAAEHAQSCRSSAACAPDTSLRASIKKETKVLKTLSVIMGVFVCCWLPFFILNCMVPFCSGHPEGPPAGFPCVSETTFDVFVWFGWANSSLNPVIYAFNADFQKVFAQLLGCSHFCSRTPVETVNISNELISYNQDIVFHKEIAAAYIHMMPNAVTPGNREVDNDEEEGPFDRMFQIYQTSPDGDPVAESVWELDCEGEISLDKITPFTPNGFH
Sigma2, sequence (Q5BJF2 whole entry): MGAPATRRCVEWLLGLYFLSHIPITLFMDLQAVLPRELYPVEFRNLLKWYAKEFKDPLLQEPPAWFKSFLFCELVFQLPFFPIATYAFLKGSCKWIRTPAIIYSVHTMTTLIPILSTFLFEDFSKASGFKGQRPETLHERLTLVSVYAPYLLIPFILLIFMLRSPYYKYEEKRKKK
A3B2, sequence (P04757 26-499): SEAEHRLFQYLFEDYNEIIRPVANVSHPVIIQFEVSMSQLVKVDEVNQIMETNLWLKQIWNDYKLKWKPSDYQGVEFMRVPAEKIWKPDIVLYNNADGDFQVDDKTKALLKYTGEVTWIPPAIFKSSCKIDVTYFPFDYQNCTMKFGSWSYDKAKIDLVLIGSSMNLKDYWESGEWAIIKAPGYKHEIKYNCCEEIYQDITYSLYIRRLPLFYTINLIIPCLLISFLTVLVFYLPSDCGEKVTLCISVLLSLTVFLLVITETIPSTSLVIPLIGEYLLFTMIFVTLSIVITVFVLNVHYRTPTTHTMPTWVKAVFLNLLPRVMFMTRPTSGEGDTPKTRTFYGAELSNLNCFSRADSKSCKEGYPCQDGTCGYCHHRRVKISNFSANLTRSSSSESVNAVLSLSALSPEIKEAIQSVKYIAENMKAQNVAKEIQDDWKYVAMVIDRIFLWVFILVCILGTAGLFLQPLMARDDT
A3B2, sequence (P12390 25-500): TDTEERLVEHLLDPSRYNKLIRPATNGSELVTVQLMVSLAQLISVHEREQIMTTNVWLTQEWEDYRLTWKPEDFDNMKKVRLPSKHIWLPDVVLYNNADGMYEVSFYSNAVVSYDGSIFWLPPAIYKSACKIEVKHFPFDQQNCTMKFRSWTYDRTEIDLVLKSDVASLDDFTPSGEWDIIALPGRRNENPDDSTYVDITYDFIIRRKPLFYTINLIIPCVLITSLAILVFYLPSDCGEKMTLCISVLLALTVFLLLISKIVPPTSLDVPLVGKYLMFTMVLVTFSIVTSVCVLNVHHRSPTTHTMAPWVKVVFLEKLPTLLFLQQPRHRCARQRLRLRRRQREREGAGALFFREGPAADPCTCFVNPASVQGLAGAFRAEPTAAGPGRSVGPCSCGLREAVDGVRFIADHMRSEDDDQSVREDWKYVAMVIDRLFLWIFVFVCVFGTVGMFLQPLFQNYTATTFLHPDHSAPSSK
H3, sequence (Q9Y5N1 whole entry): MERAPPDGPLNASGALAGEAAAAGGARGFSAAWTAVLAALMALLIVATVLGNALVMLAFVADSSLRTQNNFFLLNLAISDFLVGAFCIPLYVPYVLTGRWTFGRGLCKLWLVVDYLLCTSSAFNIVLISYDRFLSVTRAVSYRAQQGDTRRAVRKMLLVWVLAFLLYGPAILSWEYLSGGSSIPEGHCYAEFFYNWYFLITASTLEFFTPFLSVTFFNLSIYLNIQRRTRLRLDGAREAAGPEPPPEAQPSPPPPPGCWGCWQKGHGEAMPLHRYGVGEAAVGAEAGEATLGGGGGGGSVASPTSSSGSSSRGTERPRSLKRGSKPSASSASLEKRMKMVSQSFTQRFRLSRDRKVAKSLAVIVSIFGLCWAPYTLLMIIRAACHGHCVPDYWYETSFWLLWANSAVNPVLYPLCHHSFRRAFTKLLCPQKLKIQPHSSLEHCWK

Compound	Ki [1]	inhibition at 10 µM [2]	Ki ([2]; Ki Sigma 2, Table S1, unit inferred)	Ki [3]	Ki [4]	Ki [5]	Ki [6]	affinity for the serotonin transporter (SERT), in words [6]
CCNC1(c2cccc(OC)c2)CCCCC1=O (racemic) [Methoxetamine, (RS)-2-(ethylamino)-2-(3-methoxyphenyl)cyclohexanone]	> 10 µM	< 50%	> 10 µM	> 10 µM	> 10 µM	> 10 µM	–	–
COc1cccc(C2(N3CCCCC3)CCCCC2)c1 [3-MeO-PCP, 1-[1-(3-methoxyphenyl)cyclohexyl]piperidine]	> 10 µM	< 50%	–	> 10 µM	> 10 µM	> 10 µM	0.216 µM	–
COc1ccc(C2(N3CCCCC3)CCCCC2)cc1 [4-MeO-PCP, 1-[1-(4-methoxyphenyl)cyclohexyl]piperidine]	> 10 µM	–	–	> 10 µM	> 10 µM	> 10 µM	0.844 µM	submicromolar affinities
